# Experiments:
# rat [1] = details: Multigenerational reproductive toxicity study, sprague dawley, Oral, Feed, dose end: 2 generation
# dog [2] = details: Combined chronic toxicity/carcinogenicity, beagle, Oral, Feed, dose end: 104 week
# dog [3] = details: Chronic toxicity, beagle, Oral, Feed, dose end: 104 week
# mouse [4] = details: Carcinogenicity, swiss albino, Oral, Feed, dose end: 78 week
# rabbit [5] = details: Prenatal developmental toxicity study; new zealand white; Oral; Gavage/Intubation; dose end: 19 GD; group: maternal; reproductive / reproductive performance / postimplantation loss / postimplantation loss + reproductive / reproductive performance / …
# rat [6] = details: Prenatal developmental toxicity study, sprague dawley, Oral, Gavage/Intubation, dose end: 19 GD
# rat [7] = details: Subchronic oral toxicity in rodents, sprague dawley, Gavage/Intubation, dose end: 94 day
# rat [8] = details: Combined chronic toxicity/carcinogenicity, sprague dawley, Oral, Feed, dose end: 104 week
# dog [9] = details: Chronic toxicity; beagle; Oral; Feed; dose end: 52 week; group: systemic; systemic / in life observation / body weight / body weight + systemic / organ weight / spleen / absolute + systemic / organ weight / spleen…
# dog [10] = details: Subchronic oral toxicity in nonrodent, beagle, Capsule, dose end: 26 week, group: systemic, systemic / in life observation / body weight / body weight gain
# dog [11] = details: Chronic toxicity, beagle, Oral, Capsule, dose end: 52 week, group: systemic
# mouse [12] = details: Carcinogenicity, other, Oral, Feed, dose end: 18 month, group: systemic
# rat [13] = details: Combined chronic toxicity/carcinogenicity; sprague dawley; Oral; Feed; dose end: 104 week; group: systemic; systemic / clinical chemistry / alanine aminotransferase (alt/sgpt) / alanine aminotransferase (alt/sgpt) + systemic / clinical chemistry / …
# rabbit [14] = details: Prenatal developmental toxicity study, other, Oral, Gavage/Intubation, dose end: 19 GD
# rat [15] = details: Subchronic oral toxicity in rodents, other, Feed, dose end: 91 day
# [16] = group: offspring, systemic / in life observation / body weight / offspring (pup) weight
# [17] = group: offspring, systemic / in life observation / body weight / offspring (pup) weight + developmental / offspring survival late / viability index / …
# [18] = group: parental, systemic / in life observation / body weight / body weight + systemic / in life observation / food consumption / food consumption + systemic…
# [19] = group: cholinesterase, cholinesterase / cholinesterase / cholinesterase / plasma cholinesterase (che)
# [20] = group: systemic, systemic / pathology microscopic / intestine small / hypertrophy + systemic / in life observation / clinical signs / soft stools + systemic…
# [21] = group: systemic, systemic / pathology microscopic / intestine small / hypertrophy + systemic / pathology microscopic / stomach / hypertrophy + systemic / …
# [22] = group: cholinesterase, cholinesterase / cholinesterase / cholinesterase / erythrocyte cholinesterase (che) + cholinesterase / cholinesterase / cholinesterase / …
# [23] = group: systemic, systemic / in life observation / body weight / body weight + systemic / in life observation / body weight / body weight gain + systemic / in…
# [24] = group: developmental, systemic / in life observation / body weight / fetal weight
# [25] = group: maternal, systemic / in life observation / mortality / mortality + systemic / pathology microscopic / liver / hepatitis + systemic / pathology …
# [26] = group: cholinesterase, cholinesterase / cholinesterase / cholinesterase / plasma cholinesterase (che) + cholinesterase / cholinesterase / cholinesterase / brain …
# [27] = group: systemic, systemic / organ weight / liver / relative to body weight + systemic / organ weight / ovary / absolute + systemic / organ weight / ovary / …
# [28] = group: systemic, systemic / clinical chemistry / alkaline phosphatase (alp/alk) / alkaline phosphatase (alp/alk) + systemic / in life observation / body …
# [29] = systemic / in life observation / body weight / body weight gain + systemic / in life observation / food consumption / food consumption + …
# [30] = systemic / pathology microscopic / lung / adenoma + systemic / pathology microscopic / lung / carcinoma + systemic / in life observation / …
# [31] = group: developmental, developmental / developmental malformation / bone / hypoplasia + developmental / developmental malformation / trunk / spina bifida
# [32] = group: maternal, systemic / in life observation / body weight / body weight gain
# [33] = group: cholinesterase, cholinesterase / cholinesterase / cholinesterase / cholinesterase (che)
# [34] = group: systemic, systemic / clinical chemistry / alkaline phosphatase (alp/alk) / alkaline phosphatase (alp/alk) + systemic / in life observation / clinical …
compound,measurement,setting,value
O=P(O)(O)CCCl [Ethephon],LEL,rat [1]; [16],198 mg/kg/day
same,LOAEL,rat [1]; [16],198 mg/kg/day
same,NEL,rat [1]; [17],19.8 mg/kg/day
same,NOAEL,rat [1]; [17],19.8 mg/kg/day
same,LEL,rat [1]; [18],245 mg/kg/day
same,LOAEL,rat [1]; [18],245 mg/kg/day
same,NEL,rat [1]; [18],23.7 mg/kg/day
same,NOAEL,rat [1]; [18],23.7 mg/kg/day
same,LEL,dog [2]; [19],0.75 mg/kg/day
same,LOAEL,dog [2]; [19],0.75 mg/kg/day
same,NEL,dog [2]; [19],< 0.75 mg/kg/day
same,NOAEL,dog [2]; [19],< 0.75 mg/kg/day
same,LEL,dog [2]; [20],7.5 mg/kg/day
same,LOAEL,dog [2]; [20],> 37.5 mg/kg/day
same,NEL,dog [2]; [20],0.75 mg/kg/day
same,NOAEL,dog [2]; [20],≥ 37.5 mg/kg/day
same,LOAEL,"dog [3]; group: cholinesterase, cholinesterase / cholinesterase / cholinesterase / erythrocyte cholinesterase (che)",7.5 mg/kg/day
same,LEL,dog [3]; [19],0.75 mg/kg/day
same,NEL,dog [3]; [19],< 0.75 mg/kg/day
same,NOAEL,"dog [3]; group: cholinesterase, cholinesterase / cholinesterase / cholinesterase / plasma cholinesterase (che) + cholinesterase / cholinesterase / cholinesterase / …",0.75 mg/kg/day
same,LEL,"dog [3]; group: systemic, systemic / pathology microscopic / intestine small / hypertrophy + systemic / pathology microscopic / stomach / hypertrophy",7.5 mg/kg/day
same,LOAEL,dog [3]; [21],> 75 mg/kg/day
same,NEL,dog [3]; [21],0.75 mg/kg/day
same,NOAEL,dog [3]; [21],≥ 75 mg/kg/day
same,LEL,mouse [4]; [22],156 mg/kg/day
same,LOAEL,mouse [4]; [22],> 7750 mg/kg/day
same,NEL,mouse [4]; [22],15.5 mg/kg/day
same,NOAEL,mouse [4]; [22],≥ 7750 mg/kg/day
same,LOAEL,"mouse [4]; group: systemic, systemic / in life observation / body weight / body weight + systemic / in life observation / body weight / body weight gain",1630 mg/kg/day
same,NEL,mouse [4]; [23],156 mg/kg/day
same,NOAEL,mouse [4]; [23],156 mg/kg/day
same,LEL,"mouse [4]; group: systemic, systemic / in life observation / body weight / body weight + systemic / in life observation / body weight / body weight gain + systemic / …",1630 mg/kg/day
same,LEL,rabbit [5],250 mg/kg/day
same,LOAEL,rabbit [5],250 mg/kg/day
same,NEL,rabbit [5],125 mg/kg/day
same,NOAEL,rabbit [5],125 mg/kg/day
same,LEL,rat [6]; [24],1800 mg/kg/day
same,LOAEL,rat [6]; [24],1800 mg/kg/day
same,NEL,rat [6]; [24],600 mg/kg/day
same,NOAEL,rat [6]; [24],600 mg/kg/day
same,LEL,rat [6]; [25],1800 mg/kg/day
same,LOAEL,rat [6]; [25],1800 mg/kg/day
same,NEL,rat [6]; [25],600 mg/kg/day
same,NOAEL,rat [6]; [25],600 mg/kg/day
same,LEL,rat [7]; [19],50 mg/kg/day
same,NEL,rat [7]; [19],< 50 mg/kg/day
same,LOAEL,rat [7]; [26],> 200 mg/kg/day
same,NOAEL,rat [7]; [26],≥ 200 mg/kg/day
same,LEL,rat [7]; [27],200 mg/kg/day
same,LOAEL,rat [7]; [27],200 mg/kg/day
same,NEL,rat [7]; [27],100 mg/kg/day
same,NOAEL,rat [7]; [27],100 mg/kg/day
same,LEL,rat [8]; [22],150 mg/kg/day
same,LOAEL,rat [8]; [22],150 mg/kg/day
same,NEL,rat [8]; [22],15 mg/kg/day
same,NOAEL,rat [8]; [22],15 mg/kg/day
same,LEL,rat [8]; [28],15 mg/kg/day
same,LOAEL,rat [8]; [28],> 150 mg/kg/day
same,NEL,rat [8]; [28],1.5 mg/kg/day
same,NOAEL,rat [8]; [28],≥ 150 mg/kg/day
same,LEL,dog [9],52.1 mg/kg/day
same,LOAEL,dog [9],52.1 mg/kg/day
same,NEL,dog [9],28.5 mg/kg/day
same,NOAEL,dog [9],28.5 mg/kg/day
CCOC(=O)NCCOc1ccc(Oc2ccccc2)cc1 [Fenoxycarb],LEL,dog [10],500 mg/kg/day
same,LOAEL,dog [10],500 mg/kg/day
same,NEL,dog [10],150 mg/kg/day
same,NOAEL,dog [10],150 mg/kg/day
same,LEL,dog [11]; systemic / clinical chemistry / phosphorus / phosphorus,80 mg/kg/day
same,NOAEL,dog [11]; systemic / in life observation / body weight / body weight gain + systemic / clinical chemistry / phosphorus / phosphorus + systemic / organ…,80 mg/kg/day
same,LOAEL,dog [11]; [29],260 mg/kg/day
same,NEL,dog [11]; [29],25 mg/kg/day
same,LEL,mouse [12]; systemic / pathology gross / spleen / enlarged,5.75 mg/kg/day
same,NEL,mouse [12]; systemic / pathology gross / spleen / enlarged + systemic / pathology microscopic / liver / carcinoma + systemic / pathology microscopic / …,1.1 mg/kg/day
same,LOAEL,mouse [12]; [30],51.5 mg/kg/day
same,NOAEL,mouse [12]; [30],5.33 mg/kg/day
same,LEL,rat [13],24.7 mg/kg/day
same,LOAEL,rat [13],24.7 mg/kg/day
same,NEL,rat [13],8.1 mg/kg/day
same,NOAEL,rat [13],8.1 mg/kg/day
same,LEL,rabbit [14]; [31],300 mg/kg/day
same,LOAEL,rabbit [14]; [31],300 mg/kg/day
same,NEL,rabbit [14]; [31],200 mg/kg/day
same,NOAEL,rabbit [14]; [31],200 mg/kg/day
same,LEL,rabbit [14]; [32],200 mg/kg/day
same,LOAEL,rabbit [14]; [32],200 mg/kg/day
same,NEL,rabbit [14]; [32],100 mg/kg/day
same,NOAEL,rabbit [14]; [32],100 mg/kg/day
same,LEL,rat [15]; [33],250 mg/kg/day
same,LOAEL,rat [15]; [33],> 800 mg/kg/day
same,NEL,rat [15]; [33],80 mg/kg/day
same,NOAEL,rat [15]; [33],≥ 800 mg/kg/day
same,LEL,rat [15]; [34],80 mg/kg/day
same,LOAEL,rat [15]; [34],80 mg/kg/day
same,NEL,rat [15]; [34],< 80 mg/kg/day
same,NOAEL,rat [15]; [34],< 80 mg/kg/day

# Source: EPA's ToxRefDB 2
